For 1 molecule, inhibition results are on record in patent publication US11484543B2, “Compositions and methods for diagnosing and treating diseases and disorders associated with mutant KCNJ5” (The Rockefeller University, priority 2017, dated 2022).

The test deals with T1, KCNJ5^G151R homotetramers (Homo sapiens, UniProt P48544, G151R).
T1 construct: GFP; expressed in transfected cells; host or cells: HEK293T (American Type Culture Collection), transient
T1 sequence (P48544 1-419 G151R): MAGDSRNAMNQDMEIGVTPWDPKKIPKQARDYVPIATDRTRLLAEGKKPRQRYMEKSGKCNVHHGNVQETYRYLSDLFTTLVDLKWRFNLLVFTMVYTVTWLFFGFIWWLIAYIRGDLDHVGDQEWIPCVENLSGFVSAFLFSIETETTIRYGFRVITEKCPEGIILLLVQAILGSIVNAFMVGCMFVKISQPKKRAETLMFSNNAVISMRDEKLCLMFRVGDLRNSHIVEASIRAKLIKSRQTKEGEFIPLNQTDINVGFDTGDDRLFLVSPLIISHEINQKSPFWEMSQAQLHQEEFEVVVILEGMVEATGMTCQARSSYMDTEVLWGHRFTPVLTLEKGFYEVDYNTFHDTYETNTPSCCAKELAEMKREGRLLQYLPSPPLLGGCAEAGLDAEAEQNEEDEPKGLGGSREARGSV
Nature of the test: Perforated whole-cell patch clamp, KCNJ5^G151R homotetramers in HEK293T cells. The format is cell-based. The following applies: HEK-293T, at −80 mV. The procedure:
Cation currents were measured with the perforated whole cell recording technique (140 mM NaCl/5 mM KCl bath solution, 140 mM KCl pipette solution for KCNJ5^G151R; 140 mM NaCl/5 mM KCl bath solution, 140 mM KCl, 1.8 mM MgCl2 pipette solution for KCNJ5^L168R; 140 mM KCl bath and pipette solution for KCNJ5^WT). […] Errors represent standard error of the mean, N=3 to 6. […] In contrast, WT currents are not inhibited.
HEK293T cells (American Type Culture Collection) were used for transient expression of GFP-tagged KCNJ5 or KCNJ3. The cells were grown in Dulbecco's modified Eagle medium (DMEM; Invitrogen) supplemented with 10% FBS (Invitrogen) in 5% CO2 and 95% air at 37° C. […]
Within 24 hr after transfection, the cells were treated with trypsin-containing medium (TrypLE Express) (Gibco) for 10 minutes to detach the cells. […] Fluorescence signal (an indication of positive transfection) was detected with an intensified video imaging system including a SIT 68 camera (Long Island Industries). […] After forming a high resistance seal (>2 GΩ), the membrane capacitance was monitored until the whole-cell patch configuration was formed. The cell membrane capacitance was measured and compensated. The K/cation currents were measured from −80 mV to 20 mV with 20 mV steps by an Axon 200A patch-clamp amplifier. […]
Background: In patch-clamp work, channel activity is measured electrically.

Usually inhibition stands for how much of the control response was suppressed. Read a low inhibition as little suppression. For `CC[C@H]1OC(=O)[C@H](C)[C@@H](O[C@H]2C[C@@](C)(OC)[C@@H](O)[C@H](C)O2)[C@H](C)[C@@H](O[C@@H]2O[C@H](C)C[C@H](N(C)C)[C@H]2O)[C@](C)(O)C[C@@H](C)/C(=N\OCOCCOC)[C@H](C)[C@@H](O)[C@]1(C)O` [Roxithromycin, roxithromycin], the inhibition at 10 µM (10 μM) was found to be 53%. 20 µM produced 80% inhibition (20 μM).
